The values that follow come from US8440708B2, “Triazole-substituted arylamides as P2X3 and P2X2/3 antagonists” (Roche Palo Alto LLC, priority 2007, dated 2013).

In one experiment the target is T1, rat P2X3 receptor (Rattus norvegicus, UniProt P49654).
T1 construct: expressed in transfected cells; host or cells: CHO-K1
T1 sequence (P49654 1-397): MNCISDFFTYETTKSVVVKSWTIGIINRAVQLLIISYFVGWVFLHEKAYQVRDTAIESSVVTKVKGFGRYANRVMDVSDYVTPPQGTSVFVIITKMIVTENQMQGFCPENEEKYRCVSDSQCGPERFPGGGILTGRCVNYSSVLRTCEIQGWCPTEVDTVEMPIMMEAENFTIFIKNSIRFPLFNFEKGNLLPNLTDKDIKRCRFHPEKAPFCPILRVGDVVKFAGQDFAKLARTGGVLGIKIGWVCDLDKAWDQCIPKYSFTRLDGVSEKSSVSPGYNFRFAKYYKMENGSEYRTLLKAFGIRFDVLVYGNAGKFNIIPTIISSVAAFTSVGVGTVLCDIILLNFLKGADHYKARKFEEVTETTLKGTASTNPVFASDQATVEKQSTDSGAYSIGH
Put plainly: P2X3/P2X2/3 FLIPR (Fluorometric Imaging Plate Reader) Assay, P2X3. Type of experiment: cell-based. Conditions: CHO-K1 cells transfected with rat P2X3; agonist α,β-meATP 1 μM; Table 1; read-out: P2X3 pKi (converted). In short, it runs like this: (§1)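 Transfected CHO-K1 cells loaded with Fluo-3 AM (2 μM final) for 1 h at 37 °C, then compound preincubated 20 min at room temperature. α,β-meATP challenge at 1 μM (P2X3) or 5 μM (P2X2/3) final; peak calcium fluorescence (ex 488, em 510-570 nm) over 2 min fitted by nonlinear regression to inhibition curves.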

A further experiment deals with T2, human P2X2/3 receptor (Homo sapiens, UniProt P56373+Q9UBL9).
T2 construct: expressed in transfected cells; host or cells: CHO-K1
T2 sequence (Q9UBL9 1-471): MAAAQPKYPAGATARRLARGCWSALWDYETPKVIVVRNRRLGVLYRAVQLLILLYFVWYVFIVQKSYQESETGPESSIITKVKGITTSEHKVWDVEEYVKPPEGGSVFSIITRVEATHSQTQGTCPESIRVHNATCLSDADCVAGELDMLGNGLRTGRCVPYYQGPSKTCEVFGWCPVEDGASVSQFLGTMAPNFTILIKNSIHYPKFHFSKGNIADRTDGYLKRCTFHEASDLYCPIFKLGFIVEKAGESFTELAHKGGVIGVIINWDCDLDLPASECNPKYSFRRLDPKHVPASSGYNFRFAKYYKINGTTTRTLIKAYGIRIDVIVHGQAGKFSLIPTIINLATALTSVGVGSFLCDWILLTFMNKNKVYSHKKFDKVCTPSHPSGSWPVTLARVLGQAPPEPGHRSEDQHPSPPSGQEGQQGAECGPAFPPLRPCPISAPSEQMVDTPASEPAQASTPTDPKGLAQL
T2 sequence (P56373 1-397): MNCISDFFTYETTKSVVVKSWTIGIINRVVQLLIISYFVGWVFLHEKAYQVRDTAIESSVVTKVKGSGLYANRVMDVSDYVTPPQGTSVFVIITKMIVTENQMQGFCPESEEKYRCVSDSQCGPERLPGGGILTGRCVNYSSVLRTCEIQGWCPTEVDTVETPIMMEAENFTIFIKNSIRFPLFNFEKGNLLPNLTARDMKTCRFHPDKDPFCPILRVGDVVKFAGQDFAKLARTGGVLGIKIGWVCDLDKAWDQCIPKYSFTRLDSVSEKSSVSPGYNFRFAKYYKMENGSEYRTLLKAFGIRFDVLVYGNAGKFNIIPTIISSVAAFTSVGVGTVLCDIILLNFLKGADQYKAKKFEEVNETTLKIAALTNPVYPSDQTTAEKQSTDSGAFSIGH
As to the kind of experiment: P2X3/P2X2/3 FLIPR (Fluorometric Imaging Plate Reader) Assay, P2X2/3. Type of experiment: cell-based. Particulars: CHO-K1 cells transfected with human P2X2/3; agonist α,β-meATP 5 μM; Table 1; read-out: P2X2/3 pKi (converted). In short, it runs like this: as §1

Consider `Cc1ccc(-c2cc(C(=O)NC(C)c3cnccn3)cc(-n3nncc3C(C)C)c2)cc1` (centres unmarked) [Compound 12, 5-(5-Isopropyl-[1,2,3]triazol-1-yl)-4′-methyl-biphenyl-3-carboxylic acid (1-pyrazin-2-yl-ethyl)-amide], for which the values for the Ki at rat P2X3 receptor and on human P2X2/3 receptor were 7.94 nM and 31.6 nM, respectively.
Take `Cc1ccc(-c2cc(C(=O)NC(C)c3cnccn3)cc(-n3ncnc3C(C)C)c2)cc1` (centres unmarked) [Compound 18, 5-(5-Isopropyl-[1,2,4]triazol-1-yl)-4′-methyl-biphenyl-3-carboxylic acid (1-pyrazin-2-yl-ethyl)-amide]: the results for the Ki at rat P2X3 receptor and on human P2X2/3 receptor were 3.09 nM and 24 nM, respectively.
Turning to `COC(C)c1ncnn1-c1cc(C(=O)N[C@@H](C)CO)cc(-c2ccc(C)cn2)c1` (some centres unmarked) [Compound 57, N-(2-Hydroxy-1-methyl-ethyl)-3-[5-(1-methoxy-ethyl)-[1,2,4]triazol-1-yl]-5-(5-methyl-pyridin-2-yl)-benzamide], the values for the Ki at rat P2X3 receptor and at human P2X2/3 receptor were 74.1 nM and 7940 nM, respectively.
Taken in the same sequence, the figures for `CC(NC(=O)c1cc(-c2ccc(Cl)cn2)cc(-n2ncnc2CF)c1)c1cnccn1` (centres unmarked) [Compound 91, 3-(5-Chloro-pyridin-2-yl)-5-(5-fluoromethyl-[1,2,4]triazol-1-yl)-N-(1-pyrazin-2-yl-ethyl)-benzamide] were 31.6 nM and 2950 nM.
On to `Cc1ccc(-c2cc(C(=O)NCc3cnc(C)cn3)cc(-n3ncnc3C(C)N(C)C)c2)cc1` (centres unmarked) [Compound 62, 5-[5-(1-Dimethylamino-ethyl)-[1,2,4]triazol-1-yl]-4′-methyl-biphenyl-3-carboxylic acid (5-methyl-pyrazin-2-ylmethyl)-amide], for which the results for the Ki on rat P2X3 receptor and on human P2X2/3 receptor were 5.25 nM and 43.7 nM, respectively.
For the molecule `COc1nnc(C(C)C)n1-c1cc(C(=O)NCc2cnc(C)cn2)cc(-c2ccc(C)cc2)c1` [Compound 138, 5-(3-Isopropyl-5-methoxy-[1,2,4]triazol-4-yl)-4′-methyl-biphenyl-3-carboxylic acid (5-methyl-pyrazin-2-ylmethyl)-amide], the Ki at rat P2X3 receptor was 724 nM; at human P2X2/3 receptor it was 4170 nM.
As for `CCOCCc1ncnn1-c1cc(C(=O)N[C@@H](C)CO)cc(-c2ccc(C)cn2)c1` [Compound 150, 3-[5-(2-Ethoxy-ethyl)-[1,2,4]triazol-1-yl]-N-((S)-2-hydroxy-1-methyl-ethyl)-5-(5-methyl-pyridin-2-yl)-benzamide], the figures for the Ki on rat P2X3 receptor and at human P2X2/3 receptor were 158 nM and 10000 nM, respectively.
For the molecule `CCn1cc(-c2cc(C(=O)NC(C)c3cnccn3)cc(-c3ccc(C)cc3)c2)nn1` (centres unmarked) [Compound 41, 5-(1-Ethyl-1H-[1,2,3]triazol-4-yl)-4′-methyl-biphenyl-3-carboxylic acid (1-pyrazin-2-yl-ethyl)-amide], the Ki at rat P2X3 receptor was 182 nM; at human P2X2/3 receptor, 7410 nM.
Regarding `Cc1ccc(-c2cc(C(=O)NC(C)CN(C)C)cc(-n3ncnc3C(C)N(C)C)c2)cc1` (centres unmarked) [Compound 103, 5-[5-(1-Dimethylamino-ethyl)-[1,2,4]triazol-1-yl]-4′-methyl-biphenyl-3-carboxylic acid (2-dimethylamino-1-methyl-ethyl)-amide], the Ki at rat P2X3 receptor was 724 nM; on human P2X2/3 receptor it was 10000 nM.
For the molecule `C[C@@H](CO)NC(=O)c1cc(-c2ccc(Cl)cn2)cc(-n2ncnc2C(C)(C)C)c1` [Compound 85, 3-(5-tert-Butyl-[1,2,4]triazol-1-yl)-5-(5-chloro-pyridin-2-yl)-N-((S)-2-hydroxy-1-methyl-ethyl)-benzamide], the Ki on rat P2X3 receptor is 41.7 nM; at human P2X2/3 receptor, 3550 nM.
Take `CCc1ncnn1-c1cc(C(=O)N[C@@H](C)CO)cc(-c2ccc(Cl)cn2)c1` [Compound 107, 3-(5-Chloro-pyridin-2-yl)-5-(5-ethyl-[1,2,4]triazol-1-yl)-N-((S)-2-hydroxy-1-methyl-ethyl)-benzamide]: the Ki was 148 nM at rat P2X3 receptor and 10000 nM on human P2X2/3 receptor.
Turning to `Cc1ccc(-c2cc(C(=O)NC(C)c3cnccn3)cc(-n3ncnc3CC(C)C)c2)nc1` (centres unmarked) [Compound 118, 3-(5-Isobutyl-[1,2,4]triazol-1-yl)-5-(5-methyl-pyridin-2-yl)-N-(1-pyrazin-2-yl-ethyl)-benzamide], the Ki is 4.27 nM on rat P2X3 receptor and 35.5 nM on human P2X2/3 receptor.
Consider `CCc1ncnn1-c1cc(C(=O)NC(C)c2cnccn2)cc(-c2ccc(C)cn2)c1` (centres unmarked) [Compound 128, 3-(5-Ethyl-[1,2,4]triazol-1-yl)-5-(5-methyl-pyridin-2-yl)-N-(1-pyrazin-2-yl-ethyl)-benzamide], for which the Ki is 10.2 nM on rat P2X3 receptor and 257 nM on human P2X2/3 receptor.
With `Cc1ccc(-c2cc(-n3ncnc3C(F)(F)F)cc(C(=O)NCc3ccc(C)nn3)c2F)nc1` [Compound 176, 2-Fluoro-N-(6-methyl-pyridazin-3-ylmethyl)-3-(5-methyl-pyridin-2-yl)-5-(5-trifluoromethyl-[1,2,4]triazol-1-yl)-benzamide], the Ki was 3.72 nM at rat P2X3 receptor and 32.4 nM at human P2X2/3 receptor.
For `Cc1ccc(-c2cc(C(=O)NC(C)c3cnccn3)cc(-c3ncnn3C(C)C)c2)cc1` (centres unmarked) [Compound 53, 5-(2-Isopropyl-2H-[1,2,4]triazol-3-yl)-4′-methyl-biphenyl-3-carboxylic acid (1-pyrazin-2-yl-ethyl)-amide], the Ki is 12.9 nM on rat P2X3 receptor and 309 nM at human P2X2/3 receptor.
With `CC(NC(=O)c1cc(-c2ccc(Cl)cn2)cc(-n2ncnc2C(C)(C)C)c1)c1cnccn1` (centres unmarked) [Compound 83, 3-(5-tert-Butyl-[1,2,4]triazol-1-yl)-5-(5-chloro-pyridin-2-yl)-N-(1-pyrazin-2-yl-ethyl)-benzamide], the Ki at rat P2X3 receptor was 12.3 nM; on human P2X2/3 receptor, 115 nM.
For `Cc1ccc(-c2cc(C(=O)NC(C)CO)cc(-n3nncc3C(C)C)c2)c(F)c1` (centres unmarked) [Compound 23, 2′-Fluoro-5-(5-isopropyl-[1,2,3]triazol-1-yl)-4′-methyl-biphenyl-3-carboxylic acid (2-hydroxy-1-methyl-ethyl)-amide], the Ki was 5.75 nM on rat P2X3 receptor and 355 nM on human P2X2/3 receptor.
On to `Cc1ccc(-c2cc(C(=O)N[C@H](C)CN3CCOCC3)cc(-n3ncnc3C(F)(F)F)c2)nc1` [Compound 179, N-((R)-1-Methyl-2-morpholin-4-yl-ethyl)-3-(5-methyl-pyridin-2-yl)-5-(5-trifluoromethyl-[1,2,4]triazol-1-yl)-benzamide], for which the Ki on rat P2X3 receptor is 24.5 nM; at human P2X2/3 receptor it was 339 nM.
As to `CC(C)c1ncnn1-c1cc(C(=O)NC2CC2)cc(-c2ccc(Cl)cn2)c1` [Compound 123, 3-(5-Chloro-pyridin-2-yl)-N-cyclopropyl-5-(5-isopropyl-[1,2,4]triazol-1-yl)-benzamide], the figures for the Ki at rat P2X3 receptor and at human P2X2/3 receptor were 11 nM and 871 nM, respectively.
`CC(C)Cc1ncnn1-c1cc(C(=O)NC(C)c2cnccn2)cc(-c2ccc(Cl)cn2)c1` (centres unmarked) [Compound 74, 3-(5-Chloro-pyridin-2-yl)-5-(5-isobutyl-[1,2,4]triazol-1-yl)-N-(1-pyrazin-2-yl-ethyl)-benzamide]: the values for the Ki on rat P2X3 receptor and on human P2X2/3 receptor were 4.17 nM and 60.3 nM, respectively.
Regarding `Cc1ccc(-c2cc(C(=O)NC3CC3)cc(-n3ncnc3C(C)(F)F)c2)nc1` [Compound 72, N-Cyclopropyl-3-[5-(1,1-difluoro-ethyl)-[1,2,4]triazol-1-yl]-5-(5-methyl-pyridin-2-yl)-benzamide], the Ki was 9.12 nM on rat P2X3 receptor and 2510 nM at human P2X2/3 receptor.
For `COC[C@@H](C)NC(=O)c1cc(-c2ccc(C)cc2F)cc(-n2ncnc2C(C)C)c1` [Compound 33, 2′-Fluoro-5-(5-isopropyl-[1,2,4]triazol-1-yl)-4′-methyl-biphenyl-3-carboxylic acid ((R)-2-methoxy-1-methyl-ethyl)-amide], the Ki was 4.07 nM on rat P2X3 receptor and 1380 nM at human P2X2/3 receptor.
